Legend:
[1] = for Glass transition temperature: DSC
[2] = molar heat capacity at constant pressure; conditions: 101.33 kPa, DSC
[3] = Molar enthalpy of transition or fusion; conditions: Crystal; DSC

c1ccc(-c2ccccc2-c2ccccc2)cc1 [o-terphenyl]
Conditions | Glass transition temperature [°C]
[1] | -3

[2]
Conditions | molar heat capacity at constant pressure [J/K/mol]
212 K, Glass | 181.5
217 K, Glass | 187.8
222 K, Glass | 194
227 K, Glass | 200.3
232 K, Glass | 206.5
237 K, Glass | 212.8
242 K, Glass | 219
280 K, Liquid | 356.2
290 K, Liquid | 363.1
300 K, Liquid | 370
310 K, Liquid | 376.9
320 K, Liquid | 383.8
330 K, Liquid | 390.7
340 K, Liquid | 397.6
350 K, Liquid | 404.4

c1ccc(-c2cccc(-c3ccccc3)c2)cc1 [m-terphenyl]
Conditions | Normal melting temperature [°C] | molar heat capacity at constant pressure [J/K/mol]
[1], Crystal, DTA | 88 | –
[2], 212 K, Crystal | – | 190.6
[2], 212 K, Glass | – | 193.8
[2], 217 K, Glass | – | 200
[2], 222 K, Crystal | – | 200.7
[2], 222 K, Glass | – | 206.2
[2], 227 K, Glass | – | 212.4
[2], 232 K, Crystal | – | 210.8
[2], 232 K, Glass | – | 218.6
[2], 237 K, Glass | – | 224.8
[2], 242 K, Crystal | – | 220.8
[2], 252 K, Crystal | – | 230.9
[2], 262 K, Crystal | – | 241
[2], 272 K, Crystal | – | 251.1
[2], 280 K, Liquid | – | 364.8
[2], 282 K, Crystal | – | 261.2
[2], 290 K, Liquid | – | 370.5
[2], 292 K, Crystal | – | 271.2
[2], 300 K, Liquid | – | 376.3
[2], 302 K, Crystal | – | 281.3
[2], 310 K, Liquid | – | 382.1
[2], 312 K, Crystal | – | 291.4
[2], 318 K, Crystal | – | 299.5
[2], 320 K, Liquid | – | 387.8
[2], 322 K, Crystal | – | 301.5
[2], 323 K, Crystal | – | 304.2
[2], 328 K, Crystal | – | 308.9
[2], 330 K, Crystal | – | 309.5
[2], 330 K, Liquid | – | 393.6
[2], 333 K, Crystal | – | 313.5
[2], 338 K, Crystal | – | 318.2
[2], 340 K, Liquid | – | 399.3
[2], 343 K, Crystal | – | 322.9
[2], 348 K, Crystal | – | 327.5
[2], 350 K, Liquid | – | 405.1
[2], 360 K, Liquid | – | 410.9
[2], 370 K, Liquid | – | 416.6
[2], 378 K, Liquid | – | 421.2

Conditions | Glass transition temperature [°C] | Molar enthalpy of transition or fusion [kcal/mol]
[1] | -17 | –
[3] | – | 5.69
